In patent publication US9801901B2, “Alginate oligomers for use in overcoming multidrug resistance in bacteria” (priority 2009, dated 2017):
≈ marks a conversion by molar mass, not a printed value. Where two headings read alike, the source gives them in different places. Marks after values point to notes of the source that are not given here.

Tests used:
[1] = system: PA01 Pseudomonas aeruginosa ATCC 15692; test: MIC assay, two-fold antibiotic dilutions in CAMHB with alginate oligomer, no visible growth; format: cell-based; settings: Pseudomonas aeruginosa, ATCC15692, Table 1, PA01, read-out: MIC
[2] = system: Pseudomonas aeruginosa ATCC 39324, mucoid type strain (R79); test: MIC assay, CAMHB with alginate oligomer, no visible growth; format: cell-based; settings: Pseudomonas aeruginosa, ATCC39324, Table 1, R79, read-out: MIC
[3] = system: Pseudomonas aeruginosa CFA 24-1, clinical mucoid strain (R80); test: as above; format: cell-based; settings: Pseudomonas aeruginosa, Table 1, R80, read-out: MIC
[4] = system: Pseudomonas aeruginosa MDR R22 from China (V1); test: as above; format: cell-based; settings: for MIC: Pseudomonas aeruginosa, Table 1, V1 MDR R22 PA, read-out: MIC
Source text: The study described in Example 1 was repeated with the following strains of bacteria and antibiotics as detailed in Tables 4, 5 and 6.

[5] = system: Pseudomonas aeruginosa MDR 301 from Poland (V2); test: as above; format: cell-based; settings: Pseudomonas aeruginosa, Table 1, V2 MDR 301 PA, read-out: MIC
[6] = system: V9 (Egypt) Acinetobacter baumannii; test: as above; format: cell-based; settings: Table 5, V9 MDR Acin. baum
[7] = system: V12 5725 (Wales) Klebsiella pneumoniae; test: as above; format: cell-based; settings: Table 5, V12 MDR Kleb pneu
MDR Providencia stuartii = test: MIC-assay, Mueller-Hinton broth with G-block alginate, 384-well, OD600 (Table 11); format: cell-based; settings: Providencia stuartii (IR57 India, V7) MDR
Source text: (§1) Minimum inhibitory concentration (MICs) of different antibiotics for strains of E. coli and Providencia stuartii displaying MDR phenotypes in the presence of varying concentrations of OligoCF-5/20 (0-10%). (MIC values are expressed in μg ml^−1).

[8] = system: strains of E. coli displaying MDR phenotypes; test: as above; format: cell-based; settings: Escherichia coli, Escherichia coli (5702, Wales, V11) MDR, read-out: MIC
Source text: as §1

[9] = system: Staphylococcus aureus (MRSA) U50; test: MIC-assay, Mueller-Hinton broth with G-block alginate, 384-well, OD600 (Table 12); format: cell-based; settings: MRSA 1040s, U50 MDR, read-out: MIC
Source text: (§2) Minimum inhibitory concentration (MICs) of different antibiotics for strains of Streptococcus oralis and Staphylococcus aureus (MRSA) displaying MDR phenotypes in the presence of varying concentrations of OligoCF-5/20 (0-10%). (MIC values are expressed in μg ml^−1).

Streptococcus oralis = test: as above; format: cell-based; settings: Streptococcus oralis (5610, V17) MDR, read-out: MIC
Source text: as §2

[10] = system: Pseudomonas aeruginosa (MDR 301, PSA, V2); test: MIC-assay, Mueller-Hinton broth with G-block alginate, 384-well, OD600; settings: Pseudomonas aeruginosa, Table 8, V2
[11] = system: Pseudomonas aeruginosa (R22, PSA, V1); test: as above
[12] = system: Burkholderia cepacia (LMG18941, ATCC-BAA-246); test: as above
[13] = system: Acinetobacter lwoffii (6056, V22); test: as above
[14] = system: Acinetobacter baumannii (MDR ACB, Libya, V4); test: as above
[15] = system: Acinetobacter lwoffii (Egypt, V10); test: as above
[16] = Table 9, G-block (OligoCF-5/20) 0%
[17] = Table 9, G-block (OligoCF-5/20) 2%
[18] = Table 9, G-block (OligoCF-5/20) 6%
[19] = Table 9, G-block (OligoCF-5/20) 10%

## CC(C)(O/N=C(\C(=O)N[C@@H]1C(=O)N2C(C(=O)[O-])=C(C[n+]3ccccc3)CS[C@H]12)c1csc(N)n1)C(=O)O [Ceftazidime]
[1]; OligoCF-5/20 0G
  MIC: < 1 µg/mL
[1]; OligoCF-5/20 +2% G
  MIC: < 1 µg/mL
[1]; OligoCF-5/20 +6% G
  MIC: < 1 µg/mL
[1]; OligoCF-5/20 +10% G
  MIC: < 1 µg/mL
[2]; OligoCF-5/20 0G
  MIC: < 1 µg/mL
[2]; OligoCF-5/20 +2% G
  MIC: < 1 µg/mL
[2]; OligoCF-5/20 +6% G
  MIC: < 1 µg/mL
[2]; OligoCF-5/20 +10% G
  MIC: < 1 µg/mL
[3]; OligoCF-5/20 0G
  MIC: < 1 µg/mL
[3]; OligoCF-5/20 +2% G
  MIC: < 1 µg/mL
[3]; OligoCF-5/20 +6% G
  MIC: < 1 µg/mL
[3]; OligoCF-5/20 +10% G
  MIC: < 1 µg/mL
[4]; OligoCF-5/20 0G
  MIC: 128 µg/mL (≈ 234 µM)
[4]; OligoCF-5/20 +2% G
  MIC: 64 µg/mL (≈ 117 µM)
[4]; OligoCF-5/20 +6% G
  MIC: 32 µg/mL (≈ 58.5 µM)
[4]; OligoCF-5/20 +10% G
  MIC: 8 µg/mL (≈ 14.6 µM)
[4]; Table 3, MDR R22 PA strain
  change of MIC in combination with azithromycin by alginate oligomer: reduced
[5]; OligoCF-5/20 0G
  MIC: 32 µg/mL (≈ 58.5 µM)
[5]; OligoCF-5/20 +2% G
  MIC: 16 µg/mL (≈ 29.3 µM)
[5]; OligoCF-5/20 +6% G
  MIC: 8 µg/mL (≈ 14.6 µM)
[5]; OligoCF-5/20 +10% G
  MIC: 4 µg/mL (≈ 7.32 µM)
[6]; Acinetobacter baumannii, OligoCF-5/20 0G, read-out: MIC
  MIC: > 512 µg/mL
[6]; OligoCF-5/20 +2% G
  MIC: 512^† μg/ml
[6]; OligoCF-5/20 +6% G
  MIC: 512^† μg/ml
[6]; OligoCF-5/20 +10% G
  MIC: 256^† μg/ml
[7]; Klebsiella pneumoniae, OligoCF-5/20 0G, read-out: MIC
  MIC: 64 µg/mL (≈ 117 µM)
[7]; OligoCF-5/20 +2% G
  MIC: 64 µg/mL (≈ 117 µM)
[7]; OligoCF-5/20 +6% G
  MIC: 16^† μg/ml
[7]; OligoCF-5/20 +10% G
  MIC: 16^† μg/ml
MDR Providencia stuartii; G-block (OligoCF-5/20) 0%
  MIC: > 1020 µg/mL
MDR Providencia stuartii; G-block (OligoCF-5/20) 2%
  MIC: > 1020 µg/mL
MDR Providencia stuartii; G-block (OligoCF-5/20) 6%
  MIC: > 1020 µg/mL
MDR Providencia stuartii; G-block (OligoCF-5/20) 10%
  MIC: > 1020 µg/mL
[8]; G-block (OligoCF-5/20) 0%
  MIC: > 16 µg/mL
[8]; G-block (OligoCF-5/20) 2%
  MIC: > 16 µg/mL
[8]; G-block (OligoCF-5/20) 6%
  MIC: > 16 µg/mL
[8]; G-block (OligoCF-5/20) 10%
  MIC: > 16 µg/mL
[9]; G-block (OligoCF-5/20) 0%
  MIC: > 16 µg/mL
[9]; G-block (OligoCF-5/20) 2%
  MIC: 16 µg/mL (≈ 29.3 µM)
[9]; G-block (OligoCF-5/20) 6%
  MIC: 8 µg/mL (≈ 14.6 µM)
[9]; G-block (OligoCF-5/20) 10%
  MIC: 2 µg/mL (≈ 3.66 µM)
Streptococcus oralis; G-block (OligoCF-5/20) 0%
  MIC: 8 µg/mL (≈ 14.6 µM)
Streptococcus oralis; G-block (OligoCF-5/20) 2%
  MIC: 4 µg/mL (≈ 7.32 µM)
Streptococcus oralis; G-block (OligoCF-5/20) 6%
  MIC: 0.0312 µg/mL (≈ 0.0572 µM)
Streptococcus oralis; G-block (OligoCF-5/20) 10%
  MIC: 1 µg/mL (≈ 1.83 µM)
[10]; G-block (OligoCF-5/20) 0%
  MIC: 0.5 µg/mL (≈ 0.915 µM)
[10]; G-block (OligoCF-5/20) 6%
  MIC: 0.25 µg/mL (≈ 0.457 µM)
[11]; Table 8, G-block (OligoCF-5/20) 0%
  MIC: > 16 µg/mL
[11]; Table 8, G-block (OligoCF-5/20) 2%
  MIC: > 16 µg/mL
[11]; Table 8, G-block (OligoCF-5/20) 6%
  MIC: > 16 µg/mL
[11]; Table 8, G-block (OligoCF-5/20) 10%
  MIC: > 16 µg/mL
[12]; ATCCBAA246|LMG18941, Table 8, G-block (OligoCF-5/20) 0%
  MIC: > 16 µg/mL
[12]; ATCCBAA246|LMG18941, Table 8, G-block (OligoCF-5/20) 2%
  MIC: 16 µg/mL (≈ 29.3 µM)
[12]; ATCCBAA246|LMG18941, Table 8, G-block (OligoCF-5/20) 6%
  MIC: 16 µg/mL (≈ 29.3 µM)
[12]; ATCCBAA246|LMG18941, Table 8, G-block (OligoCF-5/20) 10%
  MIC: 16 µg/mL (≈ 29.3 µM)
[13]; [16]
  MIC: 8 µg/mL (≈ 14.6 µM)
[13]; [17]
  MIC: 4 µg/mL (≈ 7.32 µM)
[13]; [18]
  MIC: 2 µg/mL (≈ 3.66 µM)
[13]; [19]
  MIC: 2 µg/mL (≈ 3.66 µM)
[14]; [16]
  MIC: 16 µg/mL (≈ 29.3 µM)
[14]; [17]
  MIC: 8 µg/mL (≈ 14.6 µM)
[14]; [18]
  MIC: 8 µg/mL (≈ 14.6 µM)
[14]; [19]
  MIC: 8 µg/mL (≈ 14.6 µM)
[15]; [16]
  MIC: 2 µg/mL (≈ 3.66 µM)
[15]; [17]
  MIC: 1 µg/mL (≈ 1.83 µM)
[15]; [18]
  MIC: 0.25 µg/mL (≈ 0.457 µM)
[15]; [19]
  MIC: 0.25 µg/mL (≈ 0.457 µM)
